The term LD50 denotes the dose at which mortality reaches 50%. As a reminder, the ED50 is the midpoint of the dose-response relation.

The text below walks through data of patent US4293713A, “Novel 1,1,3,5-substituted biuret compound and a pharmaceutical composition containing the same” (priority 1979, dated 1981).

Structures are written as SMILES. Read-outs that look alike come from different tables or passages of the source.

Series [1] is described as follows: Acute toxicity (oral, 7 days observation). In kind it is in vivo. To be noted: mouse, in vivo; oral, mice, 7 days; read-out: Acute toxicity, 50% lethal dose, LD50 (values with Δ marks). The procedure:
(§1) Next, several tests for determining the pharmacological properties, in that acute toxicity, anti-pyretic activity, analgesic activity and anti-inflammatory activity of the present 1,1,3,5-substituted biuret compounds of the formula (1) were conducted and the test results are shown in Table (2). In the tests, each compounds to be tested was used as a suspension in 0.25% carboxymethylcellulose solution. Methods for testing are explained as follows:
The ddy strain of male mice (body weight, 20-25 g) were used as test animals. The mice were fasted overnight and the compound to be tested was administered orally. […] The lethal dose (mg/kg, body weight) of the test compound was determined in connection with the death number of mice/the number of mice tested. In Table 2, the values indicated with Δ marks are 50% lethal dose, LD50 (mg/kg, body weight).

The subject of series [2] is Wistar strain of male rats. Put plainly: Anti-pyretic activity (dry-yeast induced fever). In kind it is in vivo, rat (Wistar strain. To be noted: oral, up to 4 hours after administration, dose not given. The procedure:
as §1
According to the method reported by Tanabe [Folia Pharmacologia Japonica, Vol. 73, pp. 803 (1977)], the Wistar strain of male rats (150-180 g body weight) were used as test animals. The rats were fasted overnight, and 1 ml/100 g (body weight) of 10% dry-yeast suspension were subcutaneously injected on the back of the rats. Five hours after the injection, the test compound was administered orally, then the body temperature of the rat was measured at time sequences. Anti-pyretic activity of the test compound was determined as the FI (febril index) by integrating pyrogenetic curve up to 4 hours after the administration of the test compound with time, and indicated as inhibitory ratio (%) shown by the following formula, [formula]

For series [3], the system named is Wistar strain of male rats. Put plainly: Anti-inflammatory activity, acute carrageenin-induced inflammatory test. To be noted: Rattus norvegicus. In kind it is in vivo, rat (Wistar strain. The protocol:
as §1
According to the method of acute carrageenin-induced inflammatory test [Folia Pharmacologia Japonica, Vol. 56, pp. 575 (1960)], the Wistar strain of male rats (body weight, 150-180 g) were used as test animals. The rats were fasted overnight, 100 mg/kg body weight of the test compound was administered orally, then 1 hour after the administration, 0.1 ml of 1% carrageenin solution, as the inflammation inducing agent, was injected subcutaneously to the hindpaw of the rat and the volume of the hindpaw was measured at time sequences. Anti-inflammatory activity of the test compound was calculated as inflammation inhibitory ratio (%) at 3 hours after the injection of the inflammation inducing agent.

For series [4], the system named is ddy strain of male mice. Nature of the series: Analgesic activity, acetic acid-induced stretching method. To be noted: Mus musculus, po; for inhibition in vivo at 100 mg/kg: read-out: Analgesic activity, acetic acid-induced stretching method, inhibitory ratio. In kind it is in vivo, mouse (ddy strain. The protocol:
as §1
According to the method reported by Koster et al., [Fed. Proc., Vol. 18, pp. 412 (1959)], the ddy strain of male mice (body weight, 20-25 g) were used as test animals. The mice were fasted overnight, 100 mg/kg body weight of the test compound was administered orally, then 1 hour after the administration, 0.2 ml of 0.7% acetic acid solution was injected intraperitoneally. The acetic acid-induced stretching symptom of mouse was observed. Analgesic activity of the test compound was calculated as the inhibitory ratio (%). In Table 2, the values in Parentheses show the data obtained from the test by using the dosage other than 100 mg/kg body weight. Further, the values indicated with Δ marks show 50% effective dose, ED50 (mg/kg body weight).

In series [5] the test system is ddy strain of male mice. Nature of the series: Analgesic activity, Haffner method. In kind it is in vivo, mouse (ddy strain. To be noted: with threshold morphine hydrochloride s.c. The protocol: as §1
According to the modified method reported by Fujimura et al., [Bulletin of the Institute for Chemical Research, Kyoto University, No. 25, pp. 36 (1951)], the ddy strain of male mice (body weight, 20-25 g) were used as test animals. The mice were fasted overnight, 100 mg/kg body weight of the test compound was administered orally, then 45 minutes after the administration, the threshold amount (1.5-2.5 mg/kg body weight) of morphine hydrochloride was injected subcutaneously. Then 1-hour pain reaction of the mouse caused by a clamp was observed. Analgesic activity of the test compound was calculated as the inhibitory ratio (%). In Table 2, the values in parentheses show the data obtained from the test by using the dosage other than 100 mg/kg body weight. Further, the values indicated with Δ marks show 50% effective dose, ED50 (mg/kg body weight).

The mark [6] stands for this setting: po, 3 h, read-out: Anti-inflammatory activity, inflammation inhibitory ratio.

For the compound `COc1ccc(NC(=O)N(C)C(=O)N(C)C)cc1` [Compound No. 17, 1,1,3-Trimethyl-5-(4-methoxyphenyl)biuret], the LD50 at 168 h in series [1] is 1800 mg/kg. Besides, the “Anti-pyretic activity, inhibitory ratio of febril index (FI)” value in series [2] was determined as 75%. Further, the inhibition in vivo at 100 mg/kg in series [3] (setting [6]) stood at 33%. Further, the ED50 with ddy strain of male mice [4] (read-out: Analgesic activity, acetic acid-induced stretching method, 50% effective dose, ED50 (values with Δ marks)) was 39 mg/kg. For the same compound, in the series with ddy strain of male mice [5] (oral, range in parentheses), the “Analgesic activity, Haffner method, 50% effective dose, ED50 (values with Δ marks)” value is 42 to 153 mg/kg.

Regarding `CN(C)C(=O)N(C)C(=O)Nc1cccc(Cl)c1` [compound 6, 1,1,3-Trimethyl-5-(3-chlorophenyl)biuret], the LD50 at 168 h in series [1] came out at 1480 mg/kg. The “Anti-pyretic activity, inhibitory ratio of febril index (FI)” value in series [2] came to 43%. The inhibition in vivo at 100 mg/kg in series [3] (po, 2 h, read-out: Anti-inflammatory activity, inflammation inhibitory ratio (2 hours value)) is 30%; with ddy strain of male mice [4] it was 62.5%. Moreover, the “Analgesic activity, Haffner method, inhibitory ratio” value with ddy strain of male mice [5] (200 mg/kg oral) is 75%.

`CN(C)C(=O)N(C)C(=O)Nc1c(Cl)cccc1Cl` [compound 9, 1,1,3-Trimethyl-5-(2,6-dichlorophenyl)biuret]: the LD50 at 168 h in series [1] worked out at 1100 mg/kg. Moreover, the “Anti-pyretic activity, inhibitory ratio of febril index (FI)” value in series [2] turned out to be 29%. Moreover, the inhibition in vivo at 100 mg/kg in series [3] (100 mg/kg oral, rats, 3 hours after carrageenin, read-out: Anti-inflammatory activity, inflammation inhibitory ratio) was determined as 25%; in the series with ddy strain of male mice [4], 50%. The “Analgesic activity, Haffner method, inhibitory ratio” value with ddy strain of male mice [5] (100 mg/kg oral) is recorded as 50%.

With `Cc1ccccc1NC(=O)N(C)C(=O)N(C)C` [compound 20, 1,1,3-Trimethyl-5-(2-methylphenyl)biuret], in series [1], the LD50 at 168 h is 1000 mg/kg. In addition, the “Anti-pyretic activity, inhibitory ratio of febril index (FI)” value in series [2] was found to be 41%. The values for the inhibition in vivo at 100 mg/kg (in series [3] (setting [6]); in the series on ddy strain of male mice [4]) were 29% and 37.5%, respectively. For the same compound, in the series with ddy strain of male mice [5] (100 mg/kg oral), the “Analgesic activity, Haffner method, inhibitory ratio” value was determined as 50%.
